Data: publication PMC8348110, “A Novel Peptide Derived from the Transmembrane Domain of Romo1 Is a Promising Candidate for Sepsis Treatment and Multidrug-Resistant Bacteria” (International Journal of Molecular Sciences, 2021)
Values after ≈ are worked out from the molar mass of the structure shown. Residues, ends and D or L forms follow the SMILES beside them.

What was measured:
[1] = test system: Klebsiella pneumoniae ATCC 13883; assay: Modified MBC determination; type: cell-based; details: Table 2
Procedure: (§1) The minimum bactericidal concentration (MBC) was determined as previously described with minor modifications. Briefly, bacteria were cultured in the mid-log phase and diluted to 5 × 10^5 colony-forming unit (CFU)/mL in 10 mM sodium phosphate buffer (pH 7.4) with a 1% volume of TS broth. They were incubated for 1 h with various peptides which were two-fold diluted serially from 64 μg/mL to 0 μg/mL concentrations in a 96-well plate. The samples were inoculated TS agar plate and incubated overnight at 37 °C. The value of MBC was determined at the lowest concentrations at which no colonies were identified.
(§2) We used the CFU counting method to measure antibacterial activity, with all bacteria cultured to the mid-log phase in an appropriate broth medium. Bacterial CFUs were counted after overnight culture at 37 °C on TS or LB agar plates. The MBC value and antibacterial activity in blood components were determined as previously described. Mouse and human whole blood were collected and diluted with PBS (pH 7.4) to measure the ex vivo antibacterial activity of AMPR-22. For that test, AMPR-22 (10 μg) was added to each whole blood solution and incubated at 37 °C with shaking at 200 rpm. At each time point, it was incubated with bacteria (1 × 10^3 CFU) for 30 min. Each sample was inoculated on an LB agar plate, and CFU counting was performed. To measure the in vivo activity of AMPR-22, 1 × 10^8 CFU of bacteria were injected into BALB/c mice, and an hour later, 10 mg/kg of the test peptides were injected. Blood samples were collected by tail cut, serially diluted with PBS (pH 7.4), and inoculated on LB-agar plates, followed by CFU counting. To estimate the functional half-life of AMPR-22, 40 mg/kg of each tested peptide were injected into mice. Whole blood sampling was performed by cardiac puncture, and the plasma was isolated by centrifugation (2000× g, 15 min). The isolated plasma was incubated with bacteria (1 × 10^3 CFU) for an hour, and then the CFU counting method was performed.

[2] = test system: Enterococcus faecium ATCC 19434; assay: Modified MBC determination; type: cell-based; details: Table 2
Procedure: as §1, §2

[3] = test system: Streptomyces sindenensis ATCC 23963; assay: Modified MBC determination; type: cell-based; details: Table 2
Procedure: as §1, §2

[4] = test system: Acinetobacter baumannii ATCC 19606; assay: Modified MBC determination; type: cell-based; details: Table 2
Procedure: as §1, §2

[5] = test system: Enterobacter aerogenes ATCC 13048; assay: Modified MBC determination; type: cell-based; details: Table 2
Procedure: as §1, §2

[6] = test system: Escherichia coli ATCC 25922; assay: Modified MBC determination; type: cell-based; details: Table 2
Procedure: as §1, §2

[7] = test system: Enterococcus faecalis ATCC 19433; assay: Modified MBC determination; type: cell-based; details: Table 2
Procedure: as §1, §2

[8] = test system: Bacillus subtilis ATCC 6633; assay: Modified MBC determination; type: cell-based; details: Table 2
Procedure: as §1, §2

HeLa cells = type: cell-based, human
Procedure: Mammalian cell viability was measured using a 3-(4,5-dimethylthiazol-2-yl)-2,5-diphenyltetrazolium bromide (MTT) assay in HeLa and HEK 293 cells. Cells were cultured on 96-well plates and incubated separately with AMPR-11, AMPR-21, AMPR-22, magainin 2, or daptomycin. After incubation for an hour, the cells were incubated with MTT solution (2 mg/mL of MTT in PBS) for an hour, and the media were removed, and dimethyl sulfoxide was added to allow the MTT formazans to solubilize. The optical density was measured using a SpectraMax Plus 384 microplate reader (Molecular Devices, San Jose, CA, USA) at 550 nm.

[9] = test system: Carbapenem-resistant K. pneumoniae, clinical isolate; type: cell-based, Klebsiella pneumoniae; details: 1 h
Text: (§3) Acinetobacter baumannii (ATCC 19606), B. subtilis (ATCC 6633), E. aerogenes (ATCC 13048), E. coli (ATCC 25922), E. faecalis (ATCC 19433), E. faecium (ATCC 19434), K. pneumoniae (ATCC 13883), P. aeruginosa (ATCC 27853), S. aureus (ATCC 29213), S. sindenensis (ATCC 23963), and MRSA (ATCC 33591) were purchased from the American Type Culture Collection (ATCC; Gaithersburg, MD, USA). Streptococcus pneumoniae (NCCP 14585), vancomycin-resistant E. faecium (NCCP 11522), and vancomycin-resistant S. aureus (NCCP 15872) were purchased from the National Culture Collection for Pathogens (NCCP; Cheongju, Korea). The isolation and use of carbapenem-resistant bacterial strains from a patient were approved (2015AN0129) by the Institutional Review Board (IRB) of Korea University Hospital. […]
(§4) The minimum bactericidal concentration (MBC) was determined as previously described with minor modifications. […] The value of MBC was determined at the lowest concentrations at which no colonies were identified.
(§5) We used the CFU counting method to measure antibacterial activity, with all bacteria cultured to the mid-log phase in an appropriate broth medium. Bacterial CFUs were counted after overnight culture at 37 °C on TS or LB agar plates. The MBC value and antibacterial activity in blood components were determined as previously described. […]

[10] = test system: Carbapenem-resistant A. baumannii, clinical isolate; type: cell-based, Acinetobacter baumannii; details: 1 h
Text: as §3, §4, §5

Q: For `CC[C@H](C)[C@H](NC(=O)CNC(=O)CNC(=O)[C@@H](NC(=O)[C@H](C)NC(=O)[C@H](CCSC)NC(=O)[C@H](Cc1ccccc1)NC(=O)[C@@H](NC(=O)CNC(=O)[C@H](Cc1ccccc1)NC(=O)[C@H](CCCCN)NC(=O)CNC(=O)CNC(=O)[C@H](CCCCN)NC(=O)[C@H](CCCCN)NC(=O)[C@H](CCSC)NC(=O)[C@H](CCSC)NC(=O)[C@H](CCCCN)NC(=O)[C@@H](N)CCCCN)[C@@H](C)O)[C@@H](C)CC)C(=O)N[C@@H](CCCNC(=N)N)C(=O)O` [AMPR-22] (H-KKMMKKGGKFGTFMAIGGIR-OH), which “MBC Value, Klebsiella pneumoniae” value [1] is on record?
A: 1 µg/mL (≈ 0.457 µM)

Q: What about the “MBC Value, Enterococcus faecium” value [2] of the same molecule?
A: 4 µg/mL (≈ 1.83 µM)

Q: And the “MBC Value, Streptomyces sindenensis” value [3]?
A: 2 µg/mL (≈ 0.915 µM)

Q: What about the “MBC Value, Acinetobacter baumannii” value [4] of the same molecule?
A: 1 µg/mL (≈ 0.457 µM)

Q: And the “MBC Value, Enterobacter aerogenes” value [5]?
A: 2 µg/mL (≈ 0.915 µM)

Q: What about the “MBC Value, Escherichia coli” value [6] of the same molecule?
A: 1 µg/mL (≈ 0.457 µM)

Q: And the “MBC Value, Enterococcus faecalis” value [7]?
A: 4 µg/mL (≈ 1.83 µM)

Q: And the “MBC Value, Bacillus subtilis” value [8]?
A: 1 µg/mL (≈ 0.457 µM)

Q: And the “Cytotoxicity, HeLa cells” value (HeLa cells)?
A: slight cytotoxicity

Q: What about the “MBC Value, Carbapenem-resistant K. pneumoniae” value [9] of the same molecule?
A: 4 µg/mL (≈ 1.83 µM)

Q: And the “MBC Value, Carbapenem-resistant A. baumannii” value [10]?
A: 1 µg/mL (≈ 0.457 µM)
